These are literature values, as cited in patent US9862672B2, “Antioxidant-based poly(anhydride-esters)” (RUTGERS, THE STATE UNIVERSITY OF NEW JERSEY, priority 2013, dated 2018).

The conditions of this data set: in vivo.

Regarding `COc1cc(/C=C/C(=O)O)ccc1O` [Ferulic acid], the Elimination half-life result was “less than 2 hours”.
